According to patent US20090176817A1, “Method of Treatment of Diarrhea-Predominant Irritable Bowel Syndrome in a Subject” (priority 2005, published 2009):

Key:
Type in all cases: in vivo, human
[1] = system: healthy subjects; assay: Study K.241.5009: esophageal visceral perception; details: mean (SD); for Pressure first producing esophageal pain / Pressure first producing esophageal sensation / Volume first producing esophageal pain / Volume first producing esophageal sensation: absolute value; for Pressure first producing esophageal pain, Differences from Placebo / Pressure first producing esophageal sensation, Differences from Placebo / Volume first producing esophageal pain, Differences from Placebo / Volume first producing esophageal sensation, Differences from Placebo: not significant
Experimental: The effect of cilansetron on esophageal visceral perception was evaluated in a randomized, double-blind, placebo-controlled, 3-way crossover study in 12 male healthy subjects (ITT population), aged 32-62 years. Subjects received placebo, cilansetron 4 mg, or cilansetron 8 mg administered orally TID for 7 days during each of the 3 periods, with a 7-day washout between periods. Esophageal distension tests were done one hour after administration of the second dose on Day 7 of each treatment. A manually inflated intraesophageal balloon was used to produce distensions (successive 1 mL increases, up to a sensation of […] pain or a maximum balloon volume of 20 mL). The primary efficacy parameter was the distension volume inducing esophageal pain. Secondary parameters were the distension volumes and pressures leading to first esophageal sensation. The pain threshold and other secondary parameters for each of the cilansetron doses was compared to placebo using a one-sided Dunnett t-test.

[2] = system: diarrhea-predominant IBS subjects; assay: Study S241.3.011: IBS-QOL; details: for Mean change in IBS-QoL subscale Body Image / Mean change in IBS-QoL subscale Dysphoria / Mean change in IBS-QoL subscale Food Avoidance / Mean change in IBS-QoL subscale Health Worry / Mean change in IBS-QoL subscale Interference with Activity / Mean change in IBS-QoL subscale Relationship / Mean change in IBS-QoL subscale Sexual / Mean change in IBS-QoL subscale Social Reaction / Mean change in IBS-QoL, Overall: RR (four-week rerandomization) period
Description: Studies S24 1.3.OO6, S24 1.3.0 1 1, and S24 1.3.009 used the following efficacy measurements: • The subjects answered the following three questions with “yes” or “no” using a phone diary at the end of each week: • a) During the last week, did you experience adequate relief of your IBS symptoms, such as abdominal pain, abdominal discomfort, abnormal bowel habits? • b) During the last week, did you experience adequate relief of your abdominal pain and/or discomfort? • c) During the last week, did you experience adequate relief of your abnormal bowel habits? • The subjects rated the following symptoms using the phone diary at the end of each day: • abdominal pain/discomfort (five-point scale); • stool consistency (seven-point Bristol Stool Scale); • stool frequency (number of bowel movements each day); • urgency (five-point scale); • straining (yes or no); • feeling of incomplete defecation (yes or no); • bloating or feeling of abdominal distension (five-point scale). • In Studies S241 A006 and S241.3.009, subjects completed the IBS-QOL Survey at Baseline (Day 1) and at the end of treatment. In Study S24 1.3.0 1 1, subjects completed the IBS-QOL Survey at Baseline (Day 1), at the end of the three-month treatment period, and at the end of rerandomized treatment.
Other secondary efficacy parameters for all three studies included: • Responder rate for the weekly diary questions on adequate relief at each month, where a responder for a month (monthly responder) was defined as a subject who answered the weekly question with “yes” at least twice for that month. The responder rate was the percentage of responders within a treatment group. The all-month responder rate for the weekly diary questions on adequate relief was also evaluated, where an all-month responder was defined as a subject who answered the weekly question with “yes” at least twice for each month. The all-month responder rate was the percentage of all-month responders within a treatment group; • Adequate relief rate for the weekly diary questions was calculated for each subject as the number of weekly assessments with adequate relief (“yes”) divided by the total number of weekly assessments; • Percentage of subjects with adequate relief for the weekly diary questions at each week; • Daily diary questions regarding abdominal pain/discomfort (five-point scale), stool consistency (seven-point scale), stool frequency (number of bowel movements each day), straining (yes or no), urgency (five-point scale), feeling of incomplete evacuation (yes or no), and bloating or feeling of abdominal distention (five-point scale); • QOL data assessed by the IBS-QOL questionnaire; and • Question to determine the interruption of activities.

[3] = system: healthy subjects; assay: Study S.241.2.106: colonic motility index; details: for colonic motility index, Comparison to Placebo: Ratio: ANOVA; for colonic motility index: arith. mean
Experimental: The effect of cilansetron on colonic motility was evaluated in a randomized, double-blind, placebo-controlled, 3-way crossover study in 12 healthy male and female subjects (ITT population), aged 24-34 years. Subjects received cilansetron 4 mg, cilansetron 8 mg, or placebo orally TID for 7 days during each of the treatment periods, with a 7-day washout between periods. Colonic motility assessments were done on the last day of each treatment period, around the time of the last dose. Subjects were fasted for 12 hours prior to start of colonic assessments. Colonic motor activity was recorded from 30 minutes prior to dosing until 240 minutes postdose. A high-calorie meal was administered at 1 hour postdose and 1 mg neostigmine was administered intramuscularly at 2.5 hours postdose. The main objective of the assessments was to establish whether cilansetron was able to reduce colonic motor activity after meal ingestion and after neostigmine injection. The main parameter of interest was the motility index, which was measured in intervals of ten minutes for a total period of 150 minutes postprandially. The time intervals of major interest were the 30-minute interval after start of meal ingestion (91-120 minutes) and the 30-minute interval after neostigmine injection (181-210 minutes). An ANOVA was used to compare the motility indices between treatments.

[4] = After Meal Ingestion, 4 mg TID oral 7 days
[5] = After Meal Ingestion, 8 mg TID oral 7 days
[6] = After Neostigmine, 4 mg TID oral 7 days
[7] = After Neostigmine, 8 mg TID oral 7 days

Cc1nccn1C[C@H]1CCc2c(c3cccc4c3n2CCC4)C1=O [Cilansetron, (R)-(−)-4,5,6,8,9,10-hexahydro-10-[(2-methyl-1H-imidazol-1-yl)methyl]-11H-pyrido-[3,2,1-jk]-carbazol-11-one]
Pressure first producing esophageal pain ([1]; 4 mg TID oral 7 days): 42.3 (11.3) mmHg
Pressure first producing esophageal sensation ([1]; 4 mg TID oral 7 days): 27.4 (9.6) mmHg
Volume first producing esophageal pain ([1]; 4 mg TID oral 7 days): 14.6 (4.3) mL
Volume first producing esophageal sensation ([1]; 4 mg TID oral 7 days): 5.3 (3.5) mL
Pressure first producing esophageal pain, Differences from Placebo ([1]; 4 mg TID oral 7 days): 3.0 (24.0) mmHg
Pressure first producing esophageal sensation, Differences from Placebo ([1]; 4 mg TID oral 7 days): −2.5 (16.4) mmHg
Volume first producing esophageal pain, Differences from Placebo ([1]; 4 mg TID oral 7 days): 1.4 (4.9) mL
Volume first producing esophageal sensation, Differences from Placebo ([1]; 4 mg TID oral 7 days): −0.3 (4.8) mL
Pressure first producing esophageal pain ([1]; 8 mg TID oral 7 days): 41.0 (12.5) mmHg
Pressure first producing esophageal sensation ([1]; 8 mg TID oral 7 days): 28.4 (10.9) mmHg
Volume first producing esophageal pain ([1]; 8 mg TID oral 7 days): 13.9 (5.8) mL
Volume first producing esophageal sensation ([1]; 8 mg TID oral 7 days): 5.2 (3.6) mL
Pressure first producing esophageal pain, Differences from Placebo ([1]; 8 mg TID oral 7 days): 1.3 (22.5) mmHg
Pressure first producing esophageal sensation, Differences from Placebo ([1]; 8 mg TID oral 7 days): −2.5 (6.9) mmHg
Volume first producing esophageal pain, Differences from Placebo ([1]; 8 mg TID oral 7 days): 0.8 (3.6) mL
Volume first producing esophageal sensation, Differences from Placebo ([1]; 8 mg TID oral 7 days): −0.5 (1.8) mL
Overall IBS-QOL score, mean change from rerandomization Baseline ([2]; C/C): 0.9
Overall IBS-QOL score, mean change from rerandomization Baseline ([2]; C/P): −4.9
Overall IBS-QOL score, mean change from rerandomization Baseline ([2]; P/C): 5.1
Mean change in IBS-QoL subscale Body Image ([2]; C/C group): −0.8
Mean change in IBS-QoL subscale Dysphoria ([2]; C/C group): +2.2
Mean change in IBS-QoL subscale Food Avoidance ([2]; C/C group): +0.6
Mean change in IBS-QoL subscale Health Worry ([2]; C/C group): +0.2
Mean change in IBS-QoL subscale Interference with Activity ([2]; C/C group): +1.4
Mean change in IBS-QoL subscale Relationship ([2]; C/C group): +1.7
Mean change in IBS-QoL subscale Sexual ([2]; C/C group): −1.4
Mean change in IBS-QoL subscale Social Reaction ([2]; C/C group): +0.3
Mean change in IBS-QoL, Overall ([2]; C/C group): +0.9
Mean change in IBS-QoL subscale Body Image ([2]; C/P group): −3.0
Mean change in IBS-QoL subscale Dysphoria ([2]; C/P group): −6.0
Mean change in IBS-QoL subscale Food Avoidance ([2]; C/P group): −4.7
Mean change in IBS-QoL subscale Health Worry ([2]; C/P group): −1.0
Mean change in IBS-QoL subscale Interference with Activity ([2]; C/P group): −6.4
Mean change in IBS-QoL subscale Relationship ([2]; C/P group): −3.0
Mean change in IBS-QoL subscale Sexual ([2]; C/P group): −3.5
Mean change in IBS-QoL subscale Social Reaction ([2]; C/P group): −5.9
Mean change in IBS-QoL, Overall ([2]; C/P group): −4.9
Mean change in IBS-QoL subscale Body Image ([2]; P/C group): +5.0
Mean change in IBS-QoL subscale Dysphoria ([2]; P/C group): +1.4
Mean change in IBS-QoL subscale Food Avoidance ([2]; P/C group): +7.9
Mean change in IBS-QoL subscale Health Worry ([2]; P/C group): +2.1
Mean change in IBS-QoL subscale Interference with Activity ([2]; P/C group): +7.9
Mean change in IBS-QoL subscale Relationship ([2]; P/C group): +1.4
Mean change in IBS-QoL subscale Sexual ([2]; P/C group): +1.4
Mean change in IBS-QoL subscale Social Reaction ([2]; P/C group): +3.8
Mean change in IBS-QoL, Overall ([2]; P/C group): +5.1
IBS-QOL body image, treatment difference ([2]; vs placebo): 6.60
IBS-QOL dysphoria, treatment difference ([2]; vs placebo): 8.16
IBS-QOL food avoidance, treatment difference ([2]; vs placebo): 9.64
IBS-QOL health worry, treatment difference ([2]; vs placebo): 4.05
IBS-QOL interference with activity, treatment difference ([2]; vs placebo): 10.57
IBS-QOL overall score, treatment difference in mean change from Baseline at Endpoint ([2]; vs placebo): 7.53
IBS-QOL relationships, treatment difference ([2]; vs placebo): 4.72
IBS-QOL sexual, treatment difference ([2]; vs placebo): 5.93
IBS-QOL social reaction, treatment difference ([2]; vs placebo): 5.53
colonic motility index, Comparison to Placebo: Ratio [3, 4]: 101%
colonic motility index [3, 4]: 20358
colonic motility index, Comparison to Placebo: Ratio [3, 5]: 106%
colonic motility index [3, 5]: 23478
colonic motility index, Comparison to Placebo: Ratio [3, 6]: 192%
colonic motility index [3, 6]: 50580
colonic motility index, Comparison to Placebo: Ratio [3, 7]: 162%
colonic motility index [3, 7]: 48691
